The results in this text go back to US20260176289A1, “SMALL MOLECULE INHIBITORS OF KRAS PROTEINS” (Merck Sharp & Dohme LLC, priority 2022, published 2026).

The target of assay [1] is KRAS-WT (Homo sapiens, UniProt P01116). Description: SOS-catalyzed nucleotide exchange assay (Procedure A, TR-FRET), KRAS-WT. In kind it is biochemical. Conditions: nucleotide exchange, read-out: KRAS WT GNE IC50. In short, it runs like this:
(§1)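 TR-FRET readout (520/495 nm) of SOS-driven exchange of Bodipy-GDP for unlabeled GTP (3 mM) on biotinylated, Tb-streptavidin-bound RAS, after 60 min compound preincubation at room temperature. Exchange times and RAS/SOS levels: 60 min for WT (1/40 nM), G12C triple mutant (3/40 nM), NRAS (1.25/40 nM); 90 min for G12V (1.25/160 nM). Four-parameter logistic fits on normalized effect.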
In general terms: TR-FRET usually uses a lanthanide donor and a delayed reading to cut background.

In assay [2] the target is KRAS-G13D (Homo sapiens, UniProt P01116, G13D). Description: SOS-catalyzed nucleotide exchange assay (Procedure A, TR-FRET), KRAS-G13D. In kind it is biochemical. Conditions: nucleotide exchange, Procedure A; read-out: KRAS G13D GNE IC50.
The subject of assay [3] is PANC08.13 cells. Description: Cellular phospho-ERK assay, PANC08.13 cells (homozygous KRAS-G12D). The class given is cell-based. The conditions noted are these: Homo sapiens, PANC-08-13, KRAS-G12D, 2 hours, read-out: PANC-08.13 pERK IC50. In short, it runs like this: (§2)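 Cells were seeded overnight, then treated 2 h at 37° C with compound in a 10-point, 1:3 titration from 30 μM top final concentration. Lysates were assayed by AlphaLISA SureFire Ultra for p-ERK and total ERK. IC50 came from a 4-parameter logistic fit of the p-ERK/total ERK ratio.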

The target in assay [4] is KRAS-G12C (C51S/C80L/C118S) (Homo sapiens, UniProt P01116, C118S/C51S/C80L/G12C). Briefly: SOS-catalyzed nucleotide exchange assay (Procedure A, TR-FRET), KRAS-G12C. In kind it is biochemical. The conditions noted are these: nucleotide exchange, Procedure A; read-out: KRAS G12C GNE IC50. In short, it runs like this:
as §1

Assay [5] addresses HRAS (Homo sapiens, UniProt P01112). Briefly: SOS-catalyzed nucleotide exchange assay (Procedure A, TR-FRET), HRAS. In kind it is biochemical. Conditions: read-out: HRAS GNE IC50. In short, it runs like this:
(§3)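 Signal ratio (520/495 nm, excitation 340 nm) reports Bodipy-GDP retention on biotinylated RAS after SOS-catalyzed exchange with 3 mM GTP. SOS was 40 nM, except 160 nM for G12V. Room-temperature exchange lasted 60 min (90 min for G12V), following a 60 min compound preincubation.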

For assay [6], the target named is KRAS-G12D (Homo sapiens, UniProt P01116, G12D). Description: SOS-catalyzed nucleotide exchange assay (Procedure A, TR-FRET), KRAS-G12D. In kind it is biochemical. The conditions noted are these: nucleotide exchange, read-out: KRAS G12D GNE IC50. In short, it runs like this: as §3
The target of assay [7] is KRAS-G12V (Homo sapiens, UniProt P01116, G12V). Description: SOS-catalyzed nucleotide exchange assay (Procedure A, TR-FRET), KRAS-G12V. The conditions noted are these: nucleotide exchange, read-out: KRAS G12V GNE IC50. In kind it is biochemical. In short, it runs like this:
as §1

Assay [8] relates to AsPC-1 cells. Briefly: Cellular phospho-ERK assay, AsPC-1 cells (homozygous KRAS-G12D). In kind it is cell-based. The conditions noted are these: Homo sapiens, ASPC1, 2 h, read-out: AsPC1 pERK IC50. Put shortly:
as §2

Assay [9] relates to MKN-1 cells. Description: Cellular phospho-ERK assay, MKN-1 cells (amplified wild-type KRAS). The class given is cell-based. The conditions noted are these: Homo sapiens, read-out: MKN1 pERK IC50. Put shortly: as §2
In assay [10] the test system is SW620 cells. Briefly: Cellular phospho-ERK assay, SW620 cells (homozygous KRAS-G12V). The class given is cell-based. The conditions noted are these: Homo sapiens, read-out: SW620 pERK IC50. Put shortly: as §2
[11] abbreviates: amplified wild-type KRAS, 2 hours.
Where [12] appears, read: SW-620, 2 hours compound incubation.

pIC50: −log10 of the molar value. Read-outs that look alike come from different tables or passages of the source.

Chain of KRAS-G12D (P01116 with tags, fused parts or gaps isoform P01116-2 G12D): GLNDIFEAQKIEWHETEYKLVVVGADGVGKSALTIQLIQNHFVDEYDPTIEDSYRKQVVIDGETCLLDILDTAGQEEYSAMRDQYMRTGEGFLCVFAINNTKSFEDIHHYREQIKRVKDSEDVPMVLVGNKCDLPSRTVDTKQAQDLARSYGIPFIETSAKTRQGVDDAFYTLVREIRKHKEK
Chain of KRAS-G12V (P01116 with tags, fused parts or gaps isoform P01116-2 G12V): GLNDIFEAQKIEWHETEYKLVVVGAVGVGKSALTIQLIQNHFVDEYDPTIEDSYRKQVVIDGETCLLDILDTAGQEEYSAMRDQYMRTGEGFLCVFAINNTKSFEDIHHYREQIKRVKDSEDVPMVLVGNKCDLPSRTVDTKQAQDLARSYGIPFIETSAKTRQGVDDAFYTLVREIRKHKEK
Chain of KRAS-G13D (P01116 with tags, fused parts or gaps isoform P01116-2 G13D): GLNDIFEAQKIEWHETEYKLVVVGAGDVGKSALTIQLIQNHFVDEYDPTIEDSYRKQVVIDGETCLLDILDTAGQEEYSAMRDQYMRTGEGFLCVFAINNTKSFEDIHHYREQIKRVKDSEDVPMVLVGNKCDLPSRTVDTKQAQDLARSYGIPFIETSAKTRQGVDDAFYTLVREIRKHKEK
Chain of KRAS-G12C (C51S/C80L/C118S) (P01116 with tags, fused parts or gaps isoform P01116-2 G12C/C51S/C80L/C118S): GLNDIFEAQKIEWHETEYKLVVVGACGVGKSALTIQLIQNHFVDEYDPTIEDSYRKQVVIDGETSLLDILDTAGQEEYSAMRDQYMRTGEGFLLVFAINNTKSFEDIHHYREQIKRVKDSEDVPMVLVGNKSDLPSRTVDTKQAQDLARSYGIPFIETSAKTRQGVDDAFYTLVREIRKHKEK
Chain of HRAS (P01112 with tags, fused parts or gaps): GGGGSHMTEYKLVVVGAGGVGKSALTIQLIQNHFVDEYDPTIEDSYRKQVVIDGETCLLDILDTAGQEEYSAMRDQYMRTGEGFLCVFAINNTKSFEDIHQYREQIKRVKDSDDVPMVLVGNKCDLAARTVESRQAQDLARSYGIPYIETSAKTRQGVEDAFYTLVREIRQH
Chain of KRAS-WT (P01116 with tags, fused parts or gaps isoform P01116-2): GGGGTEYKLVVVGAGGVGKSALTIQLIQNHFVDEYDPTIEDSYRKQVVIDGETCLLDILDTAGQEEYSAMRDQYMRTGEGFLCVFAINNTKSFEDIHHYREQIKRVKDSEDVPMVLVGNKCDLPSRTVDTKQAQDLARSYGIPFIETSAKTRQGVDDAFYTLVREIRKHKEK

By pIC50 is commonly meant −log10 of the IC50, conventionally taken in molar units. Take `Cc1cc2[nH]ncc2c(-c2nccc3c2sc2nc(OC[C@]4(CN(C)C)CC4(F)F)nc(N4CCOC[C@@](C)(O)C4)c23)c1C(F)(F)F` [Ex-130, (6S)-4-(2-(((R)-1-((dimethylamino)-methyl)-2,2-di-fluorocyclopropyl)-methoxy)-8-(6-methyl-5-(trifluoro-methyl)-1H-indazol-4-yl)pyrido[4′,3′: 4,5]thieno[2,3-d]pyrimidin-4-yl)-6-methyl-1,4-oxaze-pan-6-ol]: the pIC50 in assay [1] was 6.94; in assay [2], 7.12; in assay [3] it was 7.56; in [4], 7.00; in assay [5], 5.31; in assay [6], 7.69. In addition, the pIC50 in assay [7] is 7.11; in assay [8] (KRAS-G12D, 2 hours), 7.16; in [9] (setting [11]), 6.60; in assay [10] (SW-620, KRAS-G12V, 2 hours) it was 6.94.
On to `COC1(C)CN(C[C@@]2(COc3nc(N4CCOC[C@@](C)(O)C4)c4c(n3)sc3c(-c5c(C6(F)CC6)c(Cl)cc6[nH]ncc56)nccc34)CC2(F)F)C1` [Ex-240, (6S)-4-(8-(6-chloro-5-(1-fluorocyclopropyl)-1H-indazol-4-yl)-2-(((R)-2,2-difluoro-1-((3-methoxy-3-methylazetidin-1-yl)methyl)cyclopropyl)metho-xy)pyrido[4′,3′:4,5]thieno[2,3-d]pyrimidin-4-yl)-6-methyl-1,4-oxazepan-6-ol], for which the pIC50 in assay [1] was 7.70; in assay [2], 7.34; in [4], 7.71; in assay [5] it was 5.65; in assay [6] it was 8.37; in assay [7], 7.98. Also, the pIC50 in assay [8] (2 hours compound incubation) was 7.23; in assay [9] (2 hours compound incubation), 7.41; in assay [10] (setting [12]), 7.44.
As for `CCC1c2c(cc3[nH]ncc3c2-c2nccc3c2sc2nc(OC[C@@]45CCCN4C/C(=C\F)C5)nc(N4CCOC[C@@](C)(O)C4)c23)CC1(F)F` (single isomer, unassigned) [Ex-109], the pIC50 in [1] is 8.21; in [2], 8.33; in [4] it was 7.47; in [5], 5.09; in [6], 8.36; in [7], 8.26. For the same compound, the pIC50 in assay [8] (KRAS-G12D, 2 hours) is 7.42; in assay [9] (setting [11]) it was 7.81; in assay [10] (SW-620, KRAS-G12V, 2 hours), 7.73.
For `C#Cc1cccc2cc3[nH]ncc3c(-c3nccc4c3sc3nc(OC[C@@]56CCCN5C[C@H](F)C6)nc(N5CCOC[C@@](C)(O)C5)c34)c12` [Ex-171, (6S)-4-(8-(5-ethynyl-1H-benzo[f]indazol-4-yl)-2-(((2R,7aS)-2-fluorotetrahydro-1H-pyrrolizin-7a(5H)-yl)methoxy)pyrido[4′,3′:4,5]thieno[2,3-d]pyrimidin-4-yl)-6-methyl-1,4-oxazepan-6-ol], the pIC50 in [1] was 8.36; in assay [2], 8.30; in assay [4], 7.41; in [5], 5.29; in assay [6], 8.78; in [7] it was 8.29. For the same compound, the figures for the pIC50 in [8] (2 hours compound incubation), in assay [9] (2 hours compound incubation) and in [10] (setting [12]) were 7.91, 7.62 and 7.98, respectively.
`C#Cc1c(F)sc2cc3[nH]ncc3c(-c3nccc4c3sc3nc(OC[C@@]56CCCN5C[C@H](F)C6)nc(N5CCOC[C@@](C)(O)C5)c34)c12` [Ex-164]: the negative-log IC50 (pIC50) in assay [1] was 8.69; in assay [2], 8.18; in assay [4] it was 7.45; in [5], 5.72; in assay [6], 8.83; in [7], 8.50. The values for the pIC50 in assay [8] (2 hours compound incubation), in assay [9] (2 hours compound incubation) and in assay [10] (setting [12]) were 8.24, 7.84 and 8.56, respectively.
As for `C[C@H](N(C)C)[C@@]1(COc2nc(N3CCOC[C@@](C)(O)C3)c3c(n2)sc2c(-c4c(C5CC5)c(Cl)cc5[nH]ncc45)nccc23)CC1(F)F` [Ex-215, (6S)-4-(8-(6-chloro-5-cyclopropyl-1H-indazol-4-yl)-2-(((R)-1-((S)-1-(dimethylamino)-ethyl)-2,2-difluoro-cyclopropyl)meth-oxy)pyrido[4′,3′: 4,5]thieno[2,3-d]pyrimidin-4-yl)-6-methyl-1,4-oxaze-pan-6-ol], the pIC50 in assay [1] was 7.79; in assay [2], 7.41; in assay [4] it was 6.98; in assay [5], 5.79; in assay [6] it was 8.43; in assay [7] it was 7.68. Also, the results for the pIC50 in [8] (2 hours compound incubation), in [9] (2 hours compound incubation) and in [10] (setting [12]) were 7.25, 7.49 and 7.64, respectively.
As to `CN1CCC[C@@]2(COc3nc(N4CCOC[C@@](C)(O)C4)c4c(n3)sc3c(-c5c(C6CC6)c(C(F)(F)F)cc6[nH]ncc56)nccc34)CCC[C@@H]12` [Ex-205, (6S)-4-(8-(5-cyclopropyl-6-(trifluoromethyl)-1H-indazol-4-yl)-2-(((4aS,7aR)-1-methyloctahydro-4aH-cyclopenta[b]pyridin-4a-yl)methoxy)pyrido[4′,3′:4,5]thieno[2,3-d]pyrimidin-4-yl)-6-methyl-1,4-oxazepan-6-ol], the pIC50 in [1] is 8.40; in [2], 7.97; in assay [4], 7.40; in assay [5], 5.29; in assay [6], 8.77; in assay [7], 8.35. Also, the values for the pIC50 in assay [8] (2 hours compound incubation), in [9] (2 hours compound incubation) and in [10] (setting [12]) were 7.65, 7.77 and 7.82, respectively.
